Results published in patent US11180462B2, “Microbiocidal oxadiazole derivatives” (SYNGENTA PARTICIPATIONS AG, priority 2015, dated 2021).

What was measured:
[1] = tested on: Puccinia recondita f. Sp. Tritici; experiment: Fungicidal activity against Puccinia recondita f. sp. tritici / wheat / leaf disc preventative (brown rust); format: in vivo; details: foliar, 200 ppm in the applied formulation, wheat leaf segments, preventative, compared to untreated control leaf disks, read-out: disease control
In short: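 200 ppm spray on wheat cv. Kanzler leaf segments; spore inoculation +1 day; 19° C., 75% rh, 12 h/12 h light cycle; single rating of % control vs untreated at 7 to 9 days.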

[2] = tested on: Puccinia recondita f. Sp. Tritici; experiment: Fungicidal activity against Puccinia recondita f. sp. tritici / wheat / leaf disc curative (brown rust); format: in vivo; details: foliar, 24 h, 200 ppm in the applied formulation, wheat leaf segments, curative (applied 1 day after inoculation), compared to untreated control leaf disks, read-out: disease control
In short: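 % disease control vs untreated, scored 6–8 d post-application. Wheat cv. Kanzler segments, spore-inoculated, dark 19° C/75% RH; formulated cpd applied 1 d post-inoc; then 19° C, 75% RH, 12 h L/12 h D.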

[3] = tested on: Glomerella lagenarium (Colletotrichum lagenarium); experiment: Fungicidal activity against Glomerella lagenarium (Colletotrichum lagenarium) liquid culture / cucumber / preventative (anthracnose); format: cell-based; details: Colletotrichum orbiculare; 20 ppm in the applied formulation; liquid culture (PDB), growth inhibition measured photometrically after 3 to 4 days; compared to untreated control; read-out: disease control
In short: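 Percent activity against the untreated check was derived from photometric growth measurements made 2 to 7 days after conidia in potato dextrose broth were combined with compound at 20 ppm. Cultures were kept dark at 24 °C and 96% humidity.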

CCCC(=O)N(Cc1ccc(-c2noc(C(F)(F)F)n2)cc1)C(C)CC (stereo not drawn) [Compound 1.373, N-sec-butyl-N-[[4-[5-(trifluoromethyl)-1,2,4-oxadiazol-3-yl]phenyl]methyl]-butanamide]
≥ 80%: pest or weed control at 200 ppm [1] | pest or weed control at 200 ppm [2] | inhibition of growth at 20 ppm [3]

CC(=O)N(Cc1ccc(-c2noc(C(F)(F)F)n2)cc1)CC1CCCO1 (stereo not drawn) [Compound 1.451, N-(tetrahydrofuran-2-ylmethyl)-N-[[4-[5-(trifluoromethyl)-1,2,4-oxadiazol-3-yl]phenyl]methyl]-acetate]
≥ 80%: pest or weed control at 200 ppm [1] | pest or weed control at 200 ppm [2] | inhibition of growth at 20 ppm [3]

COCCCC(=O)N(Cc1ccc(-c2noc(C(F)(F)F)n2)cc1)Cc1ccco1 [Compound 1.467, N-(2-furylmethyl)-4-methoxy-N-[[4-[5-(trifluoromethyl)-1,2,4-oxadiazol-3-yl]phenyl]methyl]-butanamide]
≥ 80%: pest or weed control at 200 ppm [1] | pest or weed control at 200 ppm [2] | inhibition of growth at 20 ppm [3]

CCOCC(=O)N(Cc1ccc(-c2noc(C(F)(F)F)n2)cc1)CC1CCCO1 (stereo not drawn) [Compound 1.426, 2-ethoxy-N-(tetrahydrofuran-2-ylmethyl)-N-[[4-[5-(trifluoromethyl)-1,2,4-oxadiazol-3-yl]phenyl]methyl]-acetamide]
≥ 80%: pest or weed control at 200 ppm [1] | pest or weed control at 200 ppm [2] | inhibition of growth at 20 ppm [3]

CCOC(=O)CNC(=O)N(Cc1ccc(-c2noc(C(F)(F)F)n2)cc1)OC [Compound 3.49, ethyl 2-[[methoxy-[[4-[5-(trifluoromethyl)-1,2,4-oxadiazol-3-yl]phenyl]methyl]-carbamoyl]-amino]acetate]
≥ 80%: pest or weed control at 200 ppm [1] | pest or weed control at 200 ppm [2] | inhibition of growth at 20 ppm [3]

CCN(CC)C(=O)N(Cc1ccc(-c2noc(C(F)(F)F)n2)cc1)OC [Compound 3.64, 1,1-diethyl-3-methoxy-3-[[4-[5-(trifluoromethyl)-1,2,4-oxadiazol-3-yl]phenyl]methyl]urea]
≥ 80%: pest or weed control at 200 ppm [1] | pest or weed control at 200 ppm [2] | inhibition of growth at 20 ppm [3]

CON(Cc1ccc(-c2noc(C(F)(F)F)n2)cc1)C(=O)C(C)NC(C)=O (stereo not drawn) [Compound 1.795, 2-acetamido-N-methoxy-N-[[4-[5-(trifluoromethyl)-1,2,4-oxadiazol-3-yl]phenyl]methyl]-propanamide]
≥ 80%: pest or weed control at 200 ppm [1] | pest or weed control at 200 ppm [2] | inhibition of growth at 20 ppm [3]

COC(C)C(=O)N(C)Cc1ccc(-c2noc(C(F)(F)F)n2)cc1 (stereo not drawn) [Compound 1.530, 2-methoxy-N-methyl-N-[[4-[5-(trifluoromethyl)-1,2,4-oxadiazol-3-yl]phenyl]methyl]-propanamide]
≥ 80%: pest or weed control at 200 ppm [1] | pest or weed control at 200 ppm [2] | inhibition of growth at 20 ppm [3]

CCC(C)N(Cc1ccc(-c2noc(C(F)(F)F)n2)cc1)C(=O)C1CC1 (stereo not drawn) [Compound 1.406, N-sec-butyl-N-[[4-[5-(trifluoromethyl)-1,2,4-oxadiazol-3-yl]phenyl]methyl]-cyclopropane-carboxamide]
≥ 80%: pest or weed control at 200 ppm [1] | pest or weed control at 200 ppm [2] | inhibition of growth at 20 ppm [3]

CON(C(=O)C1CCCCO1)C(C)c1ccc(-c2noc(C(F)(F)F)n2)cc1 (stereo not drawn) [Compound 1.249, N-methoxy-N-[1-[4-[5-(trifluoromethyl)-1,2,4-oxadiazol-3-yl]phenyl]ethyl]-tetrahydropyran-2-carboxamide]
≥ 80%: pest or weed control at 200 ppm [1] | pest or weed control at 200 ppm [2] | inhibition of growth at 20 ppm [3]

O=C(C1CC1)N(CCO)Cc1ccc(-c2noc(C(F)(F)F)n2)cc1 [Compound 1.609, N-(2-hydroxyethyl)-N-[[4-[5-(trifluoromethyl)-1,2,4-oxadiazol-3-yl]phenyl]methyl]-cyclopropane-carboxamide]
≥ 80%: pest or weed control at 200 ppm [1] | pest or weed control at 200 ppm [2] | inhibition of growth at 20 ppm [3]

CC#CC(=O)N(OC)C(C)c1ccc(-c2noc(C(F)(F)F)n2)cc1 (stereo not drawn) [Compound 1.248, N-methoxy-N-[1-[4-[5-(trifluoromethyl)-1,2,4-oxadiazol-3-yl]phenyl]ethyl]but-2-ynamide]
≥ 80%: pest or weed control at 200 ppm [1] | pest or weed control at 200 ppm [2] | inhibition of growth at 20 ppm [3]

CCC(C)N(Cc1ccc(-c2noc(C(F)(F)F)n2)cc1)C(=O)C1CSC1 (stereo not drawn) [Compound 1.378, N-sec-butyl-N-[[4-[5-(trifluoromethyl)-1,2,4-oxadiazol-3-yl]phenyl]methyl]-thietane-3-carboxamide]
≥ 80%: pest or weed control at 200 ppm [1] | pest or weed control at 200 ppm [2] | inhibition of growth at 20 ppm [3]

CC=C(C)C(=O)N(CCOC)Cc1ccc(-c2noc(C(F)(F)F)n2)cc1 [Compound 1.330, N-(2-methoxyethyl)-2-methyl-N-[[4-[5-(trifluoromethyl)-1,2,4-oxadiazol-3-yl]phenyl]methyl]-but-2-enamide]
≥ 80%: pest or weed control at 200 ppm [1] | pest or weed control at 200 ppm [2] | inhibition of growth at 20 ppm [3]

N#CC1(C(=O)N(Cc2ccc(-c3noc(C(F)(F)F)n3)cc2)CC2CCCO2)CC1 (stereo not drawn) [Compound 1.443, 1-cyano-N-(tetrahydrofuran-2-ylmethyl)-N-[[4-[5-(trifluoromethyl)-1,2,4-oxadiazol-3-yl]phenyl]methyl]-cyclopropane-carboxamide]
≥ 80%: pest or weed control at 200 ppm [1] | pest or weed control at 200 ppm [2] | inhibition of growth at 20 ppm [3]

COCC1(N(C)C(=O)N(C)Cc2ccc(-c3noc(C(F)(F)F)n3)cc2)CC1 [Compound 3.76, 1-[1-(methoxymethyl)-cyclopropyl]-1,3-dimethyl-3-[[4-[5-(trifluoromethyl)-1,2,4-oxadiazol-3-yl]phenyl]methyl]urea]
≥ 80%: pest or weed control at 200 ppm [1] | pest or weed control at 200 ppm [2] | inhibition of growth at 20 ppm [3]

O=C(C1CCCO1)N(Cc1ccc(-c2noc(C(F)(F)F)n2)cc1)CC1CCCO1 (stereo not drawn) [Compound 1.442, N-(tetrahydrofuran-2-ylmethyl)-N-[[4-[5-(trifluoromethyl)-1,2,4-oxadiazol-3-yl]phenyl]methyl]-tetrahydrofuran-2-carboxamide]
≥ 80%: pest or weed control at 200 ppm [1] | pest or weed control at 200 ppm [2] | inhibition of growth at 20 ppm [3]

CCOC(=O)CN(C)C(=O)N(CC)Cc1ccc(-c2noc(C(F)(F)F)n2)cc1 [Compound 3.92, ethyl 2-[[ethyl-[[4-[5-(trifluoromethyl)-1,2,4-oxadiazol-3-yl]phenyl]methyl]-carbamoyl]-methyl-amino]acetate]
≥ 80%: pest or weed control at 200 ppm [1] | pest or weed control at 200 ppm [2] | inhibition of growth at 20 ppm [3]

CCN(Cc1ccc(-c2noc(C(F)(F)F)n2)cc1)C(=O)N(CC)C1CC1 [Compound 3.89, 1-cyclopropyl-1,3-diethyl-3-[[4-[5-(trifluoromethyl)-1,2,4-oxadiazol-3-yl]phenyl]methyl]urea]
≥ 80%: pest or weed control at 200 ppm [1] | pest or weed control at 200 ppm [2] | inhibition of growth at 20 ppm [3]

CCN(C(=O)N(C)Cc1ccc(-c2noc(C(F)(F)F)n2)cc1)C1CC1 [Compound 3.71, 1-cyclopropyl-1-ethyl-3-methyl-3-[[4-[5-(trifluoromethyl)-1,2,4-oxadiazol-3-yl]phenyl]methyl]urea]
≥ 80%: pest or weed control at 200 ppm [1] | pest or weed control at 200 ppm [2] | inhibition of growth at 20 ppm [3]

C#CCN(C)C(=O)N(C)Cc1ccc(-c2noc(C(F)(F)F)n2)cc1 [Compound 3.77, 1,3-dimethyl-1-prop-2-ynyl-3-[[4-[5-(trifluoromethyl)-1,2,4-oxadiazol-3-yl]phenyl]methyl]urea]
≥ 80%: pest or weed control at 200 ppm [1] | pest or weed control at 200 ppm [2] | inhibition of growth at 20 ppm [3]

CC1(C(=O)N(Cc2ccc(-c3noc(C(F)(F)F)n3)cc2)Cc2ccco2)COC1 [Compound 1.468, N-(2-furylmethyl)-3-methyl-N-[[4-[5-(trifluoromethyl)-1,2,4-oxadiazol-3-yl]phenyl]methyl]-oxetane-3-carboxamide]
≥ 80%: pest or weed control at 200 ppm [1] | pest or weed control at 200 ppm [2] | inhibition of growth at 20 ppm [3]

CN(Cc1ccc(-c2noc(C(F)(F)F)n2)cc1)C(=O)N1CCCC1 [Compound 3.74, N-methyl-N-[[4-[5-(trifluoromethyl)-1,2,4-oxadiazol-3-yl]phenyl]methyl]-pyrrolidine-1-carboxamide]
≥ 80%: pest or weed control at 200 ppm [1] | pest or weed control at 200 ppm [2] | inhibition of growth at 20 ppm [3]
